pIC50: −log10 of the molar value.
Assays:
[1] = test system: MOLT-4 cells; assay: MOLT-4 cell viability, CTG assay; format: cell-based; settings: Homo sapiens, MOLT-4, 48 h
Description: The MTT colorimetric assay is based on the mitochondrial reduction of tetrazolium salt by living cells. The viable cell number is proportional to the production of formazan salts, which can be read spectrophotometrically at 540 nm. The CTG luminescent assay (CellTiter GLO, Promega) is based on a reagent which lyses cells and measures total adenosine triphosphate (ATP) content. The viable cell number is proportional to the production of ATP.
MOLT-4 cells were purchased from ATCC and cultivated in RPMI 1640 supplemented with 10% heat inactivated fetal bovine serum, penicillin (100 IU/mi), streptomycin (100 μg/ml) and L-glutamine (2 mM). Cells were cultured at 37° C. in a humidified atmosphere containing 5% […].
For CTG assay, cells were seeded in 384 microwell plates (40 μL per well) and exposed to the compounds for 48 h (11-point serial dilution with 5-fold factor, triplicates). At the end of incubation time, 40 μL of CTG solution were added per well. Wells were mixed thoroughly, and plates were incubated at room temperature for 10 minutes to stabilize luminescent signals prior to reading using a luminescence reader (PHERAStar FSX Reader, BMG Labtech).
IC50, were calculated using standard four-parametric curve fitting. IC50 is defined as the compound concentration at which the MTT or CTG signal is reduced to 50% of that measured for the control. Results shown in Table 14 represent the mean of at least 2 independent experiments.

[2] = target: T1, Bcl-xL (Homo sapiens, UniProt Q07817); assay: HCT116 Bcl-xL degradation, capillary-based immunoassay (WES); format: cell-based; settings: for DC50: HCT116, 24 h, 9-point serial dilution
T1 construct: Measured levels of Bcl-xL protein of HCT116 cells treated with the tested compounds; host or cells: HCT116
T1 sequence (Q07817 whole entry): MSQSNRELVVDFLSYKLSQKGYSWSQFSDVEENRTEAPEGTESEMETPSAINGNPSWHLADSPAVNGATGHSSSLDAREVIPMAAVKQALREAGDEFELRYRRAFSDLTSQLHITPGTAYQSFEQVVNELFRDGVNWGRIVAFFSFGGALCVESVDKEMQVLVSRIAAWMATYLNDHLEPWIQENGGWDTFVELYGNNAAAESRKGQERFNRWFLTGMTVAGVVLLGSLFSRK
Description: HCT116 cells were purchased from ATCC and cultivated in RPMI 1640 supplemented with 10% heat inactivated fetal bovine serum, penicillin (100 IU/mi), streptomycin (100 μg/ml) and L-glutamine (2 mM). Cells were cultured at 37° C. in a humidified atmosphere containing 5% CO2. Cells were seeded in 96 microwell plates, 24 h later cells were treated with compounds (2-point 10/100 nM and/or 9-point serial dilution to determine DC50; quadruplicates) during 24 h and harvested in lysis buffer containing 10 mM Hepes (pH 7.5), 150 mM KCl, 5 mM MgCl2, 1 mM EDTA, 0.4% TritonX100, protease and phosphatase inhibitors cocktails (Calbiochem).
Protein concentration in the supernatants was determined using the Pierce BCA protein assay kit (Thermo Fisher Scientific). Lysates (1.5 μg/μL) were analyzed using an automated capillary electrophoresis WES system with 2-40 kDa Wes Separation Module (25 capillary cartridges, Proteinsimple), in accordance with the manufacturer's protocols. Antibodies against the following proteins were used: Bcl-xL (#2764, Cell Signaling Technology, 1:50) and cofilin (#5175, Cell Signaling Technology, 1:1000). Signals were detected with an HRP-conjugated secondary anti-rabbit antibody (#042-206, Proteinsimple) and were quantified using Compass software (version 4.0, Proteinsimple).
Bcl-xL level was calculated by normalizing Bcl-xL values to cofilin and expressed as a percentage of the normalized value of the untreated cells. DC50 were calculated using standard four-parametric curve fitting. DC50 is defined as the compound concentration at which Bcl-xL is reduced to 50% of that measured for the control. Measured levels of Bcl-xL protein of HCT116 cells treated with the tested compounds at 2-point 10 nM/100 nM and/or 9-point for DC50 determination are shown in Table 15.

SMILES | pIC50 [1] | DC50 [2] | remaining activity at 0.01 µM ([2]; HCT-116, HCT116, 10 nM, 24 h, % of untreated cells) | remaining activity at 0.1 µM ([2]; HCT-116, HCT116, 100 nM, 24 h, % of untreated cells)
Cc1c(Nc2nc3ccccc3s2)nnc2c1CCCN2c1ccc(-c2cnn(CC34CC5(C)CC(C)(C3)CC(OCCN(C)CCCCCCCCCCCCCOc3ccc6c(c3)C(=O)N(C3CCC(=O)NC3=O)C6=O)(C5)C4)c2C)c(C(=O)O)n1 (centres unmarked) [Example 115, 6-[3-(1,3-benzothiazol-2-ylamino)-4-methyl-6,7-dihydro-5H-pyrido[2,3-c]pyridazin-8-yl]-3-[1-[[3-[2-[13-[2-(2,6-dioxo-3-piperidyl)-1,3-dioxo-isoindolin-5-yl]oxytridecyl-methyl-amino]ethoxy]-5,7-dimethyl-1-adamantyl]methyl]-5-methyl-pyrazol-4-yl]pyridine-2-carboxylic acid] | 8.41 | 0.266 nM | – | –
Cc1cc(N(CCCCN(C)C(=O)CCCCCCCCCNc2cccc3c2C(=O)N(C2CCC(=O)NC2=O)C3=O)c2ccc(-c3cnn(CC45CC6(C)CC(C)(C4)CC(OCCN(C)C)(C6)C5)c3C)c(C(=O)O)n2)nnc1Nc1nc2ccccc2s1 (centres unmarked) [Example 92, 6-[[6-(1,3-benzothiazol-2-ylamino)-5-methyl-pyridazin-3-yl]-[4-[10-[[2-(2,6-dioxo-3-piperidyl)-1,3-dioxo-isoindolin-4-yl]amino]decanoyl-methyl-amino]butyl]amino]-3-[1-[[3-[2-(dimethylamino)ethoxy]-5,7-dimethyl-1-adamantyl]methyl]-5-methyl-pyrazol-4-yl]pyridine-2-carboxylic acid] | 7.83 | 0.954 nM | – | –
Cc1c(Nc2nc3ccccc3s2)nnc2c1CCCN2c1ccc(-c2cnn(CC34CC5(C)CC(C)(C3)CC(OCCN(C)CCCCCCCCCC(=O)N3CCC(c6ccc7c(c6)CN(C6CCC(=O)NC6=O)C7=O)CC3)(C5)C4)c2C)c(C(=O)O)n1 (centres unmarked) [Example 70, 6-[3-(1,3-benzothiazol-2-ylamino)-4-methyl-6,7-dihydro-5H-pyrido[2,3-c]pyridazin-8-yl]-3-[1-[[3-[2-[[10-[4-[2-(2,6-dioxo-3-piperidyl)-1-oxo-isoindolin-5-yl]-1-piperidyl]-10-oxo-decyl]-methyl-amino]ethoxy]-5,7-dimethyl-1-adamantyl]methyl]-5-methyl-pyrazol-4-yl]pyridine-2-carboxylic acid] | 8.13 | – | 101% | 90%
Cc1c(Nc2nc3ccccc3s2)nnc2c1CCCN2c1ccc(-c2cnn(CC34CC5(C)CC(C)(C3)CC(OCCN(C)CCCCCCCOc3ccc6c(c3)C(=O)N(C3CCC(=O)NC3=O)C6=O)(C5)C4)c2C)c(C(=O)O)n1 (centres unmarked) [Example 106, 6-[3-(1,3-benzothiazol-2-ylamino)-4-methyl-6,7-dihydro-5H-pyrido[2,3-c]pyridazin-8-yl]-3-[1-[[3-[2-[7-[2-(2,6-dioxo-3-piperidyl)-1,3-dioxo-isoindolin-5-yl]oxyheptyl-methyl-amino]ethoxy]-5,7-dimethyl-1-adamantyl]methyl]-5-methyl-pyrazol-4-yl]pyridine-2-carboxylic acid] | 8.58 | 0.211 nM | – | –
Cc1c(Nc2nc3ccccc3s2)nnc2c1CCCN2c1ccc(-c2cnn(CC34CC5(C)CC(C)(C3)CC(OCCN(C)CCCCCOc3ccc6c(c3)C(=O)N(C3CCC(=O)NC3=O)C6=O)(C5)C4)c2C)c(C(=O)O)n1 (centres unmarked) [Example 107, 6-[3-(1,3-benzothiazol-2-ylamino)-4-methyl-6,7-dihydro-5H-pyrido[2,3-c]pyridazin-8-yl]-3-[1-[[3-[2-[5-[2-(2,6-dioxo-3-piperidyl)-1,3-dioxo-isoindolin-5-yl]oxypentyl-methyl-amino]ethoxy]-5,7-dimethyl-1-adamantyl]methyl]-5-methyl-pyrazol-4-yl]pyridine-2-carboxylic acid] | 8.33 | 0.739 nM | – | –
CN[C@@H](C)C(=O)N[C@H](C(=O)N1CCC[C@H]1c1nc(C(=O)c2cccc(OCCCCCCCCN(C)CCOC34CC5(C)CC(C)(CC(Cn6ncc(-c7ccc(N8CCCc9c8nnc(Nc8nc%10ccccc%10s8)c9C)nc7C(=O)O)c6C)(C5)C3)C4)c2)cs1)C1CCCCC1 [Example 97, 6-[3-(1,3-benzothiazol-2-ylamino)-4-methyl-6,7-dihydro-5H-pyrido[2,3-c]pyridazin-8-yl]-3-[1-[[3-[2-[8-[3-[2-[(2S)-1-[(2S)-2-cyclohexyl-2-[[(2S)-2-(methylamino)propanoyl]amino]acetyl]pyrrolidin-2-yl]thiazole-4-carbonyl]phenoxy]octyl-methyl-amino]ethoxy]-5,7-dimethyl-1-adamantyl]methyl]-5-methyl-pyrazol-4-yl]pyridine-2-carboxylic acid] | 8.42 | 0.356 nM | – | –
CN[C@@H](C)C(=O)N[C@H](C(=O)N1CCC[C@H]1c1nc(C(=O)c2cccc(OCCCCCCCCCCCCCCN(C)CCOC34CC5(C)CC(C)(CC(Cn6ncc(-c7ccc(N8CCCc9c8nnc(Nc8nc%10ccccc%10s8)c9C)nc7C(=O)O)c6C)(C5)C3)C4)c2)cs1)C1CCCCC1 [Example 100, 6-[3-(1,3-benzothiazol-2-ylamino)-4-methyl-6,7-dihydro-5H-pyrido[2,3-c]pyridazin-8-yl]-3-[1-[[3-[2-[14-[3-[2-[(2S)-1-[(2S)-2-cyclohexyl-2-[[(2S)-2-(methylamino)propanoyl]amino]acetyl]pyrrolidin-2-yl]thiazole-4-carbonyl]phenoxy]tetradecyl-methyl-amino]ethoxy]-5,7-dimethyl-1-adamantyl]methyl]-5-methyl-pyrazol-4-yl]pyridine-2-carboxylic acid] | 8.08 | – | – | –
CN[C@@H](C)C(=O)N[C@H](C(=O)N1CCC[C@H]1c1nc(C(=O)c2cccc(OCCCCN(C)CCOC34CC5(C)CC(C)(CC(Cn6ncc(-c7ccc(N8CCCc9c8nnc(Nc8nc%10ccccc%10s8)c9C)nc7C(=O)O)c6C)(C5)C3)C4)c2)cs1)C1CCCCC1 [Example 99, 6-[3-(1,3-benzothiazol-2-ylamino)-4-methyl-6,7-dihydro-5H-pyrido[2,3-c]pyridazin-8-yl]-3-[1-[[3-[2-[4-[3-[2-[(2S)-1-[(2S)-2-cyclohexyl-2-[[(2S)-2-(methylamino)propanoyl]amino]acetyl]pyrrolidin-2-yl]thiazole-4-carbonyl]phenoxy]butyl-methyl-amino]ethoxy]-5,7-dimethyl-1-adamantyl]methyl]-5-methyl-pyrazol-4-yl]pyridine-2-carboxylic acid] | 8.34 | – | – | –
Cc1c(Nc2nc3ccccc3s2)nnc2c1CCCN2c1ccc(-c2cnn(CC34CC5(C)CC(C)(C3)CC(OCCN(C)CCCCCCCCCCC(=O)N3CCC(c6ccc7c(c6)CN(C6CCC(=O)NC6=O)C7=O)CC3)(C5)C4)c2C)c(C(=O)O)n1 (centres unmarked) [Example 75, 6-[3-(1,3-benzothiazol-2-ylamino)-4-methyl-6,7-dihydro-5H-pyrido[2,3-c]pyridazin-8-yl]-3-[1-[[3-[2-[[11-[4-[2-(2,6-dioxo-3-piperidyl)-1-oxo-isoindolin-5-yl]-1-piperidyl]-11-oxo-undecyl]-methyl-amino]ethoxy]-5,7-dimethyl-1-adamantyl]methyl]-5-methyl-pyrazol-4-yl]pyridine-2-carboxylic acid] | 8.23 | – | – | –
Cc1c(Nc2nc3ccccc3s2)nnc2c1CCCN2c1ccc(-c2cnn(CC34CC5(C)CC(C)(C3)CC(OCCN(C)CCCCCCCCCCCCCCCC(=O)N3CCC(c6ccc7c(c6)CN(C6CCC(=O)NC6=O)C7=O)CC3)(C5)C4)c2C)c(C(=O)O)n1 (centres unmarked) [Example 74, 6-[3-(1,3-benzothiazol-2-ylamino)-4-methyl-6,7-dihydro-5H-pyrido[2,3-c]pyridazin-8-yl]-3-[1-[[3-[2-[[16-[4-[2-(2,6-dioxo-3-piperidyl)-1-oxo-isoindolin-5-yl]-1-piperidyl]-16-oxo-hexadecyl]-methyl-amino]ethoxy]-5,7-dimethyl-1-adamantyl]methyl]-5-methyl-pyrazol-4-yl]pyridine-2-carboxylic acid] | – | 0.133 nM | – | –

Source: patent US20240376094A2, “SELECTIVE BCL-XL PROTAC COMPOUNDS AND METHODS OF USE” (Les Laboratoires Servier, priority 2021, published 2024)
